In assay [1] the target is T1, RXRγ (UniProt P28705).
T1 sequence (P28705 1-463): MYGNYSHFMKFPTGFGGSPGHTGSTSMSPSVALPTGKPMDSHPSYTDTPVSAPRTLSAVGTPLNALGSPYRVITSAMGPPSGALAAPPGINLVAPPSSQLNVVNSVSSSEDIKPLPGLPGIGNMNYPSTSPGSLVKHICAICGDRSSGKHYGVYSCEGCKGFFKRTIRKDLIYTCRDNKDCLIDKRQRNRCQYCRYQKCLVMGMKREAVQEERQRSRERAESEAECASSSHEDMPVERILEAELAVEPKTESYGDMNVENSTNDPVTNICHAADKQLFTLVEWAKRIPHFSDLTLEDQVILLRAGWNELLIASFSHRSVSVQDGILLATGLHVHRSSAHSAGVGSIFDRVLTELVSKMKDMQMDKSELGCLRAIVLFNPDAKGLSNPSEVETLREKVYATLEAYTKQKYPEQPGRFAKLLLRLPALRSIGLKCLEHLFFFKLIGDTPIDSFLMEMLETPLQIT
Description: ligand binding assay, RXRγ. The following applies: read-out: RXR Bind Ki (nM) γ.
Source text: (§2) The results obtained in this assay are expressed in EC50 numbers, as they are also in the chimeric receptor transactivation assay. The results of ligand binding assay are expressed in Kd numbers.
(§3) Particularly, the transactivation data pertaining to RAR receptors were obtained in the chimeric assay, and the data pertaining to transactivation of RXR receptors were obtained in the holoreceptor transactivation assay.

Assay [2] addresses T1, RXRγ. Nature of the assay: holoreceptor transactivation assay, RXRγ. The class given is cell-based. The conditions noted are these: NA = Not Active, read-out: RXR Trans. EC50 (nM) γ.
Source text: (§4) The results obtained in this assay are expressed in EC50 numbers, as they are also in the chimeric receptor transactivation assay.
Assay [3] addresses T2, RXRβ (UniProt P28704).
T2 sequence (P28704 1-520): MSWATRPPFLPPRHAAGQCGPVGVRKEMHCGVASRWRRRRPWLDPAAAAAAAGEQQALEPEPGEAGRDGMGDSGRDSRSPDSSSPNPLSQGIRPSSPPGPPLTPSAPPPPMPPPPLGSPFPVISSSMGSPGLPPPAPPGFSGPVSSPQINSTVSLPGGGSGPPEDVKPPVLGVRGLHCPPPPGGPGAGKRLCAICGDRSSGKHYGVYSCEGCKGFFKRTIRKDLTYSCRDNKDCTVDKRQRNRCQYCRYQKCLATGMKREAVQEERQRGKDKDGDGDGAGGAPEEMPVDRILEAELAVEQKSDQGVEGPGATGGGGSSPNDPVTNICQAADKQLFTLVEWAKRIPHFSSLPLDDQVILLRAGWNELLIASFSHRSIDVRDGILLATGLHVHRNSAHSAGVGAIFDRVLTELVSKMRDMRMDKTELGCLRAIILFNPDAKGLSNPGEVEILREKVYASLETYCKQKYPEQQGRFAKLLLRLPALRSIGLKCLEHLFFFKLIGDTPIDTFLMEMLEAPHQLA
Description: ligand binding assay, RXRβ. The conditions noted are these: read-out: RXR Bind Ki (nM) β.
Source text: as §2, §3

Assay [4] concerns the target T2, RXRβ. Description: holoreceptor transactivation assay, RXRβ. The format is cell-based. The following applies: NA = Not Active, read-out: RXR Trans. EC50 (nM) β.
Source text: as §4
Assay [5] deals with RARβ (Homo sapiens, UniProt P10826). Nature of the assay: chimeric receptor transactivation assay, RARβ. The class given is cell-based. The following applies: NA = Not Active, read-out: RAR Trans. EC50 (nM) β. The text has this:
(§1) The specification of U.S. Pat. No. 5,455,265 is hereby expressly incorporated by reference.

Assay [6] deals with RARγ (Homo sapiens, UniProt P13631). Nature of the assay: chimeric receptor transactivation assay, RARγ. The class given is cell-based. The following applies: NA = Not Active, read-out: RAR Trans. EC50 (nM) γ.
Source text: as §1

The structures appear in SMILES notation.

RARβ, sequence (P19793 whole entry): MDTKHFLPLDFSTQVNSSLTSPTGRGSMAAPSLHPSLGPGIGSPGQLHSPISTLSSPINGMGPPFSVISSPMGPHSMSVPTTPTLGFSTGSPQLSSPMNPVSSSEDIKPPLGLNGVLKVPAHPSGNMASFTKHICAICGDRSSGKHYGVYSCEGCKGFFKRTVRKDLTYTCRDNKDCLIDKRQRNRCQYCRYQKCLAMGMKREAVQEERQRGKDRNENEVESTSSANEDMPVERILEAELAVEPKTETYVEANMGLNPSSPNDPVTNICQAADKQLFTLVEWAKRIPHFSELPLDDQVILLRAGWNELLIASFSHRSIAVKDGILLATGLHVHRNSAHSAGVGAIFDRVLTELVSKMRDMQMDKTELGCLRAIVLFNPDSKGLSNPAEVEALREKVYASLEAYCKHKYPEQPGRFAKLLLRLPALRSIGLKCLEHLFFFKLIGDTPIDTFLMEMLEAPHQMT
RARβ, sequence (P10826 154-455): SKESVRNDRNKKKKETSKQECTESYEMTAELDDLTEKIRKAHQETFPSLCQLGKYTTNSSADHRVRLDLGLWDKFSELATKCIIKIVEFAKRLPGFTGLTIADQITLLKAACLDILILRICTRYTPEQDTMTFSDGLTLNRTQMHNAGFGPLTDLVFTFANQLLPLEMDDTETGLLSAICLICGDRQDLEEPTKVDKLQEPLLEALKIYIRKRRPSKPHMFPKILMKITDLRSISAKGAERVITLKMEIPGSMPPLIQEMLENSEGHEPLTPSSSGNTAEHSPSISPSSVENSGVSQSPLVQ
RARγ, sequence (P13631 whole entry): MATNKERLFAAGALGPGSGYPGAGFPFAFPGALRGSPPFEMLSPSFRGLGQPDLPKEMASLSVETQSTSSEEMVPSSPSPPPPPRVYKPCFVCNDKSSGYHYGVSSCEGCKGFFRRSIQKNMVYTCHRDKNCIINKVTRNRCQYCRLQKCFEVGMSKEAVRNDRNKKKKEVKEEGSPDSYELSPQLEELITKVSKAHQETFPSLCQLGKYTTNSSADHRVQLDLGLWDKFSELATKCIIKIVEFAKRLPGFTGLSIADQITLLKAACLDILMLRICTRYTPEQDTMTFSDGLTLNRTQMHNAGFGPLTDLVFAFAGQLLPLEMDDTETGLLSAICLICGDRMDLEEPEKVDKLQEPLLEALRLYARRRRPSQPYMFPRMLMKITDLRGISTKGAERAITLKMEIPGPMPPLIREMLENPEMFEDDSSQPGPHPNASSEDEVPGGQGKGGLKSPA
RARγ, sequence (P19793 whole entry, further chain): as the sequence (P19793 whole entry) above

The Ki is the dissociation constant of the complex between target and ligand, obtained from inhibition or displacement. As usually defined, the EC50 is the concentration that produces a half-maximal response. Take `CC1=CCC(C)(C)c2cc(N(C)c3ccc(C(=O)O)cc3)c(C)cc21` [Compound 44, 4-[Methyl(3,5,8,8-tetramethyl-7,8-dihydronaphthalen-2-yl)amino]benzoic acid]: the Ki in assay [1] and in assay [3] was over 1000 nM throughout. In addition, in assay [2], the EC50 is over 1000 nM.

Turning to `CCN(c1ccc(C(=O)O)cc1)c1cc2c(cc1C)C(C)=CCC2(C)C` [Compound 45, 4-[Ethyl(3,5,8,8-tetramethyl-7,8-dihydronaphthalen-2-yl)amino]benzoic acid], the inhibition constant (Ki) in assay [1] and in assay [3] was over 1000 nM each time. Further, in assay [2], the EC50 is over 1000 nM.

Take `CCCN(c1ccc(C(=O)O)cc1)c1cc2c(cc1C)C(C)=CCC2(C)C` [Compound 46, 4-[n-Propyl(3,5,8,8-tetramethyl-7,8-dihydronaphthalen-2-yl)amino]benzoic acid]: the Ki in assay [1] and in assay [3] was over 10000 nM throughout. Moreover, the EC50 in assay [4] was over 1000 nM.

As to `CC1=CCC(C)(C)c2cc(N(CC3CC3)c3ccc(C(=O)O)cc3)c(C)cc21` [Compound 47, 4-[Cyclopropylmethyl(3,5,8,8-tetramethyl-7,8-dihydronaphthalen-2-yl)amino]benzoic acid], the Ki in assay [3] is over 1000 nM.

For `Cc1cc2c(cc1N(C)c1ccc(C(=O)O)cc1)C(C)(C)CC=C2C(C)C` [Compound 52, 4-[Methyl-(5-isopropyl-3,8,8-trimethyl-7,8-dihydronaphthalen-2-yl)amino]benzoic acid], the EC50 in assay [4] was over 1000 nM.

`CCN(c1ccc(C(=O)O)cc1)c1cc2c(cc1C)C(C(C)C)=CCC2(C)C` [Compound 53]: the EC50 in assay [4] is over 1000 nM. The Ki in assay [3] is over 1000 nM.

For the compound `CCCN(c1ccc(C(=O)O)cc1)c1cc2c(cc1C)C(C(C)C)=CCC2(C)C` [Compound 54, 4-[n-Propyl-(5-isopropyl-3,8,8-trimethyl-7,8-dihydronaphthalen-2-yl)lamino]benzoic acid], the EC50 in assay [4] was over 1000 nM. Besides, in assay [3], the Ki is over 1000 nM.

Turning to `CC1=CCC(C)(C)c2cc(N(C)c3ccc(C(=O)O)cc3)ccc21` [Compound 67, 4-[Methyl-(5,8,8-trimethyl-7,8-dihydro-naphthalen-2-yl)-amino]-benzoic acid], the Ki in assay [3] was over 1000 nM.

With `C=CCN(c1ccc(C(=O)O)cc1)c1ccc2c(c1)C(C(C)(C)C)=CCC2(C)C` [Compound 90, 4-[(8-t-Butyl-5,5-dimethyl-5,6-dihydronaphthalen-2-yl)(prop-2-en-yl)lamino]-benzoic acid], the EC50 in assay [5] and in assay [6] was over 1000 nM in each case.

`CCCCCCOc1cc2c(cc1N(CCC)c1ccc(C(=O)O)cc1)C(C)=CCC2(C)C` [Compound 145, 4-[(3-n-Hexyloxy-5,5,8-trimethyl-5,6-dihydronaphthalen-2-yl)-n-propylamino]benzoic acid]: the EC50 in assay [2] is over 1000 nM.

Turning to `CCCN(c1ccc(C(=O)O)cc1)c1cc2c(cc1OCc1ccccc1)C(C)(C)CC=C2C(C)C` [Compound 157], in assay [5], the EC50 is over 1000 nM.

Source of the values: US7026487B2, “Amines substituted with a dihydronaphthalenyl, chromenyl, or thiochromenyl group, a pyridyl group and an alkyl group, having retinoid-like biological activity” (Allergan, Inc., priority 2000, dated 2006).
